From US4791139A, “Diphenyl ether derivatives and their use as insecticides” (Imperial Chemical Industries PLC, priority 1986, dated 1988)

How the values were obtained:
Type in all cases: in vivo
[1] = system: Meloidogyne incognita (Tomato root knot eelworm - larvae); assay: Residual test, Tomato root knot eelworm - larvae (MI), Semi in-vitro; details: 168 h, rate column 500 ppm, application rate is half that recorded, 7 days, read-out: MI grading of mortality
[2] = system: Nilaparvata lugens (brown plant hopper - nymphs); assay: Contact test, brown plant hopper - nymphs (NL), Rice plant; details: 72 h, 500 ppm, 3 days, read-out: NL grading of mortality
In short: (§1)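 Mortality scored 1–7 days post-treatment. Test liquids at 100–500 ppm (acetone stock diluted into water + 0.1% w/w wetting agent) applied to pests, their plant/food medium, or both.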

[3] = system: Diabrotica balteata (rootworm larvae); assay: Residual test, rootworm larvae (DB), Filter paper/maize seed; details: 72 h, 500 ppm, 3 days, read-out: DB grading of mortality
In short: as §1

[4] = system: Blattella germanica (cockroach nymphs); assay: Residual test, cockroach nymphs (BG), Plastic pot; details: 72 h, 500 ppm, 3 days, read-out: BG grading of mortality
In short: as §1

[5] = system: Musca domestica (houseflies - adults); assay: Knockdown test, houseflies - adults (MD/KD), Cotton wool/sugar; details: 500 ppm, 4 hours, read-out: MD/KD grading of knockdown
In short: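 Product was dissolved in acetone and diluted with water containing 0.1% wetting agent to 100–500 ppm. The flies and/or their food medium were treated with the preparation. Mortality was scored 1–7 days after treatment, with an additional knockdown assessment for houseflies.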

[6] = system: Myzus persicae (aphids); assay: Contact test, aphids (MP), Chinese Cabbage leaf; details: 72 h, 500 ppm, 3 days, read-out: MP grading of mortality
In short: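 Aphids on a host plant and/or the plant itself were treated with 100–500 ppm of product, applied from acetone diluted in water containing 0.1% SYNPERONIC NX wetting agent. Mortality was scored usually one to seven days after treatment.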

[7] = system: carp; assay: Mortality to carp; details: after 48 hours at 10 parts per million
From the text: The compounds according to formula I and compositions comprising them have shown themselves to be particularly useful in controlling pests of maize and rice such as Chilo (stem borers), Nilaparvata and Nephotettix (plant hoppers) as well as lepidopteran pests of cotton, for example Heliothis spp. This activity is combined with a low level of hazard to aquatic organisms, eg. fish, which renders the compounds particularly suitable for use in aquatic environments, such as for the control of insect pests of paddy rice and for the control of larvae of insect vectors of disease, for example mosquitos. Thus, for example, compound 2 in Table I caused no mortality to carp after 48 hours at a concentration of 10 parts per million. […] (spider mites).

[8] = system: Chilo partellus (Maize stemborer - larvae); assay: Residual test, Maize stemborer - larvae (CP), Oilseed rape; details: 72 h, 500 ppm, 3 days, read-out: CP grading of mortality
Procedure: (§2) The activity of the Product was determined using a variety of insect pests. The Product was used in the form of liquid preparations containing from 100 to 500 parts per million (ppm) by weight of the Product. The preparations were made by dissolving the Product in acetone and diluting the solutions with water containing 0.1% by weight of a wetting agent sold under the trade name "SYNPERONIC" NX until the liquid preparations contained the required concentration of the Product. "SYNPERONIC" is a Registered Trade Mark.
(§3) The test procedure adopted with regard to each pest was basically the same and comprised supporting a number of the pests on a medium which was usually a host plant or a foodstuff on which the pests feed, and treating either or both the pests and the medium with the preparations. The mortality of the pests was then assessed at periods usually varying from one to seven days after the treatment.
(§4) The results of the tests are given in Table III for each of the Products, at the rate in parts per million given in the second column as a grading of mortality designated as A, B or C wherein A indicates 80-100% mortality or knockdown (70-100% for Meloidogyne incognita), B indicates 50-79% mortality knockdown or knockdown (50-69% for Meloidogyne incognita) and C indicates less than 50% mortality or knockdown.
In Table III the pest organism used is designated by a letter code and the pests species, the support medium or food, and the type and duration of test is given in Table II.
(Maize stemborer - larvae)

[9] = system: Musca domestica (houseflies - adults); assay: Contact test, houseflies - adults (MD), Cotton wool/sugar; details: 24 h, 500 ppm, 1 day, read-out: MD grading of mortality
In short: as §1

[10] = system: Heliothis virescens (tobacco budworm - larvae); assay: Residual test, tobacco budworm - larvae (HV), Cotton leaf; details: 72 h, read-out: HV grading of mortality
In short: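 Products applied as acetone solutions diluted in water with 0.1% wetting agent, at 100–500 ppm; pests on host plant or food, with pests and/or medium treated. Mortality or knockdown scored 1–7 days after treatment and graded A (80–100%), B (50–79%) or C (<50%).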

[11] = system: Nephotettix cincticeps; assay: Contact test, leaf hopper in place of Nilaparvata lugens (NL**), Rice plant; details: 72 h, 500 ppm, 3 days, read-out: NL** grading of mortality (Nephotettix cincticeps)
Procedure: as §2, §3
as §4, with “knockdown. […]” for “knockdown.”

[12] = system: Tetranychus urticae (spider mites - adult); assay: Contact test, spider mites - adult (TUa), French bean leaf; details: 72 h, 500 ppm, 3 days, read-out: TUA grading of mortality
In short: as §1

[13] = system: Spodoptera exigua (lesser army worm - larvae); assay: Residual test, lesser army worm - larvae (SP), Cotton leaf; details: 72 h, 500 ppm, 3 days, read-out: SP grading of mortality
In short: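 Compound dissolved in acetone and diluted in water with 0.1% Synperonic NX wetting agent to 100–500 ppm. Pests on host plant or food, with pests and/or medium treated. Mortality assessed 1–7 days after treatment and graded A (80–100%), B (50–79%) or C (<50%).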

Row | Structure (SMILES) | mortality at 250 µg/mL [1] | mortality at 500 ppm [2] | mortality at 500 ppm [3] | mortality at 500 ppm [4] | pest or weed control at 500 ppm [5] | mortality at 500 ppm [6] | mortality to carp [7] | mortality at 500 ppm [8] | mortality at 500 ppm [9] | mortality at 500 ppm [10] | mortality at 500 ppm [11] | mortality at 500 ppm [12] | mortality at 500 ppm [13]
1 | CCOc1ccc(C(CCCc2cccc(Oc3ccccc3)c2)C(F)(F)F)cc1 (racemic) [Compound 2, 2-(4-ethoxyphenyl)-5-(3-phenoxyphenyl)-1,1,1-trifluoropentane] | < 50% | 80 to 100% | 80 to 100% | 80 to 100% | 80 to 100% | 80 to 100% | no mortality | 80 to 100% | 80 to 100% | 80 to 100% | – | – | –
2 | Fc1ccc(CCC=C(c2ccc(OC(F)(F)F)cc2)C(F)F)cc1Oc1ccccc1 [Compound 26, 1,1-Difluoro-2-(4-trifluoromethoxyphenyl)-5-(4-fluoro-3-phenoxyphenyl)pent-2-ene] | – | – | 50 to 79% | 80 to 100% | 80 to 100% | 80 to 100% | – | – | 80 to 100% | 80 to 100% | 80 to 100% | 80 to 100% | 80 to 100%
